Measured values taken from the supplement of paper PMC10307832.

Legend:
Assay in all cases: relative viability (nuclei count vs DMSO), 5 days (fraction); higher = more cells survive
[1] = compound: C(C(=O)C(=O)O)Br [Bromopyruvate] + CC(=O)c1c(C)c2cnc(Nc3ccc(N4CCNCC4)cn3)nc2n(C2CCCC2)c1=O [Palbociclib] (partner 0.5 µM)
In short: (§1)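 A single step with final 0.05% Triton X-100, 1% formaldehyde and 1 ug/ml Hoechst fixed the cells and stained nuclei 5 days after treatment. Lung cancer cell lines in 1536-well plates had been treated by pin tool the day after seeding with one drug alone or a fixed anchor-drug dose plus five library-drug doses (not always all listed) in √10 steps, and nuclei were counted on 4× images. Relative viability is the ratio of nuclei in treated wells to nuclei in vehicle wells, taken as the median of duplicate plates.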

[2] = compound: CC(O)(CS(=O)(=O)c1ccc(F)cc1)C(=O)Nc1ccc(C#N)c(C(F)(F)F)c1 [Bicalutamide] + CC(=O)c1c(C)c2cnc(Nc3ccc(N4CCNCC4)cn3)nc2n(C2CCCC2)c1=O [Palbociclib] (partner 0.5 µM)
In short: as §1

[3] = compound: CC(O)(CS(=O)(=O)c1ccc(F)cc1)C(=O)Nc1ccc(C#N)c(C(F)(F)F)c1 [Bicalutamide] + CS(=O)(=O)N1CCN(Cc2cc3nc(-c4cccc5[nH]ncc45)nc(N4CCOCC4)c3s2)CC1 [Pictilisib] (partner 1 µM)
In short: as §1

Bicalutamide + Olaparib = compound: CC(O)(CS(=O)(=O)c1ccc(F)cc1)C(=O)Nc1ccc(C#N)c(C(F)(F)F)c1 [Bicalutamide] + O=C(c1cc(Cc2n[nH]c(=O)c3ccccc23)ccc1F)N1CCN(C(=O)C2CC2)CC1 [Olaparib] (partner 8 µM)
In short: as §1

Row | Cell Line | relative viability ([1]; first compound 1 µM) | relative viability ([1]; first compound 3.162 µM) | relative viability ([1]; first compound 10 µM) | relative viability ([1]; first compound 31.62 µM) | relative viability ([1]; first compound 100 µM) | relative viability ([2]; first compound 0.08 µM) | relative viability ([2]; first compound 0.253 µM) | relative viability ([2]; first compound 0.8 µM) | relative viability ([2]; first compound 2.53 µM) | relative viability ([3]; first compound 0.08 µM) | relative viability ([3]; first compound 0.253 µM) | relative viability ([3]; first compound 0.8 µM) | relative viability ([3]; first compound 2.53 µM) | relative viability (Bicalutamide + Olaparib; first compound 0.08 µM) | relative viability (Bicalutamide + Olaparib; first compound 0.253 µM) | relative viability (Bicalutamide + Olaparib; first compound 0.8 µM) | relative viability (Bicalutamide + Olaparib; first compound 2.53 µM)
1 | NCI-H460 | 0.161 | 0.247 | 0.148 | 0.196 | 0.186 | 0.171 | 0.185 | 0.193 | 0.102 | 0.343 | 0.335 | 0.478 | 0.356 | 0.439 | 0.391 | 0.436 | 0.383
2 | NCI-H520 | 0.235 | 0.209 | 0.228 | 0.232 | 0.267 | 0.188 | 0.185 | 0.286 | 0.226 | 0.516 | 0.254 | 0.281 | 0.335 | 0.342 | 0.31 | 0.335 | 0.337
3 | NCI-H647 | 0.4 | 0.312 | 0.466 | 0.386 | 0.506 | 0.415 | 0.381 | 0.503 | 0.385 | 0.358 | 0.348 | 0.643 | 0.339 | 0.571 | 0.384 | 0.591 | 0.381
4 | NCI-H650 | 0.385 | 0.306 | 0.316 | 0.338 | 0.335 | 0.372 | 0.345 | 0.397 | 0.267 | 0.726 | 0.671 | 0.951 | 0.768 | 0.373 | 0.395 | 0.401 | 0.396
5 | NCI-H661 | 0.401 | 0.387 | 0.378 | 0.403 | 0.428 | 0.418 | 0.409 | 0.424 | 0.388 | 0.433 |  | 0.494 | 0.407 | 0.815 | 0.768 | 0.74 | 0.779
6 | NCI-H727 | 0.702 | 0.654 | 0.663 | 0.646 | 0.648 | 0.647 | 0.645 | 0.693 | 0.635 | 0.415 | 0.456 | 0.377 | 0.423 | 0.895 | 0.678 | 0.614 | 0.732
7 | NCI-H838 | 0.19 | 0.251 | 0.229 | 0.237 | 0.242 | 0.225 | 0.195 | 0.256 | 0.179 | 0.589 | 0.415 | 0.524 | 0.324 | 0.777 | 0.778 | 0.733 | 0.522
8 | NCI-H1355 | 0.388 | 0.401 | 0.356 | 0.373 | 0.407 | 0.4 | 0.382 | 0.437 | 0.374 | 0.413 | 0.316 | 0.441 | 0.485 | 0.711 | 0.696 | 0.848 | 0.668
9 | NCI-H1395 | 0.551 | 0.531 | 0.724 | 0.614 | 0.662 | 0.645 | 0.624 | 0.639 | 0.568 | 0.596 | 0.519 | 0.687 | 0.456 | 0.449 | 0.483 | 0.466 | 0.429
10 | NCI-H1437 | 0.342 | 0.285 | 0.323 | 0.314 | 0.305 | 0.305 | 0.283 | 0.342 | 0.343 | 0.475 | 0.381 | 0.419 | 0.451 | 0.613 | 0.614 | 0.63 | 0.613
11 | NCI-H1650 | 0.328 | 0.328 | 0.309 | 0.368 | 0.345 | 0.435 | 0.314 | 0.464 | 0.355 | 0.701 | 0.502 | 0.825 | 0.597 | 0.989 | 0.759 | 0.899 | 0.723
12 | NCI-H1651 | 0.479 | 0.477 | 0.542 | 0.519 | 0.492 | 0.526 | 0.515 | 0.582 | 0.518 | 0.618 | 0.429 | 0.686 | 0.471 | 0.203 | 0.167 | 0.192 | 0.181
13 | NCI-H1666 | 0.618 | 0.632 | 0.64 | 0.622 | 0.599 | 0.652 | 0.603 | 0.652 | 0.675 | 0.392 | 0.404 | 0.477 | 0.406 | 0.733 | 0.814 | 0.728 | 0.744
14 | NCI-H1734 | 0.349 | 0.378 | 0.39 | 0.34 | 0.295 | 0.332 | 0.283 | 0.379 | 0.328 | 0.438 | 0.388 | 0.593 | 0.431 | 0.623 | 0.546 | 0.685 | 0.606
15 | NCI-H1755 | 0.477 | 0.43 | 0.45 | 0.431 | 0.456 | 0.472 | 0.42 | 0.473 | 0.43 | 0.476 | 0.378 | 0.523 | 0.279 | 0.87 | 0.817 | 0.901 | 0.857
16 | NCI-H1792 | 0.673 | 0.698 | 0.684 |  | 0.656 | 0.653 | 0.569 | 0.759 | 0.614 | 0.299 | 0.224 | 0.284 | 0.245 | 0.493 | 0.365 | 0.39 | 0.257
17 | NCI-H1793 | 0.291 | 0.354 | 0.325 | 0.365 | 0.341 | 0.265 |  | 0.423 | 0.382 | 0.285 | 0.208 | 0.415 | 0.281 | 0.799 |  | 1.38 | 0.744
18 | NCI-H1915 | 0.524 | 0.532 | 0.538 | 0.514 | 0.56 | 0.534 | 0.463 | 0.595 | 0.473 | 0.91 | 0.782 | 1 | 0.775 | 0.25 | 0.232 | 0.29 | 0.254
19 | NCI-H1944 | 0.32 | 0.333 | 0.335 | 0.319 | 0.311 | 0.335 | 0.299 | 0.354 | 0.323 | 0.4 | 0.296 | 0.334 | 0.327 | 0.424 | 0.388 | 0.46 | 0.375
